Reference: ChEMBL document CHEMBL1139671, “Nuphar alkaloids with immediately apoptosis-inducing activity from Nuphar pumilum and their structural requirements for the activity” (2006)
Calls of active or inactive are those of the source. No cut-off for these calls is given here.

What was measured:
U-937 [1] = assay: Cytotoxicity against U937 cells at 10 uM after 72 hrs; assay type: functional; details: Homo sapiens, U-937, 72 h
U-937 [2] = assay: Cytotoxicity against U937 cells at 1.0 uM after 72 hrs; assay type: functional; details: Homo sapiens, U-937, 72 h
HT-1080 [3] = assay: Cytotoxicity against HT1080 cells at 1.0 uM after 72 hrs; assay type: functional; details: Homo sapiens, HT-1080, 72 h
HT-1080 [4] = assay: Cytotoxicity against HT1080 cells at 10 uM after 72 hrs; assay type: functional; details: Homo sapiens, HT-1080, 72 h
B16-F10 [5] = assay: Cytotoxicity against B16F10 cells at 10 uM after 72 hrs; assay type: functional; details: Mus musculus, B16-F10, 72 h
B16-F10 [6] = assay: Cytotoxicity against B16F10 cells at 0.1 uM after 72 hrs; assay type: functional; details: Mus musculus, B16-F10, 72 h
B16-F10 [7] = assay: Cytotoxicity against B16F10 cells at 1.0 uM after 72 hrs; assay type: functional; details: Mus musculus, B16-F10, 72 h
HT-1080 [8] = assay: Cytotoxicity against HT1080 cells at 0.1 uM after 72 hrs; assay type: functional; details: Homo sapiens, HT-1080, 72 h
B16-F10 [9] = assay: Cytotoxicity against B16F10 cells at 1.0 uM after 48 hrs; assay type: functional; details: Mus musculus, B16-F10, 48 h
U-937 [10] = assay: Cytotoxicity against U937 cells at 1.0 uM after 48 hrs; assay type: functional; details: Homo sapiens, U-937, 48 h
HT-1080 [11] = assay: Cytotoxicity against HT1080 cells at 10 uM after 24 hrs; assay type: functional; details: Homo sapiens, HT-1080, 24 h
U-937 [12] = assay: Cytotoxicity against U937 cells at 10 uM after 24 hrs; assay type: functional; details: Homo sapiens, U-937, 24 h
HT-1080 [13] = assay: Cytotoxicity against HT1080 cells at 1.0 uM after 48 hrs; assay type: functional; details: Homo sapiens, HT-1080, 48 h
HT-1080 [14] = assay: Cytotoxicity against HT1080 cells at 0.1 uM after 48 hrs; assay type: functional; details: Homo sapiens, HT-1080, 48 h
B16-F10 [15] = assay: Cytotoxicity against B16F10 cells at 0.1 uM after 48 hrs; assay type: functional; details: Mus musculus, B16-F10, 48 h
HT-1080 [16] = assay: Cytotoxicity against HT1080 cells at 0.1 uM after 24 hrs; assay type: functional; details: Homo sapiens, HT-1080, 24 h
U-937 [17] = assay: Cytotoxicity against U937 cells at 10 uM after 48 hrs; assay type: functional; details: Homo sapiens, U-937, 48 h
B16-F10 [18] = assay: Cytotoxicity against B16F10 cells at 10 uM after 24 hrs; assay type: functional; details: Mus musculus, B16-F10, 24 h
U-937 [19] = assay: Cytotoxicity against U937 cells at 1.0 uM after 24 hrs; assay type: functional; details: Homo sapiens, U-937, 24 h
B16-F10 [20] = assay: Cytotoxicity against B16F10 cells at 10 uM after 48 hrs; assay type: functional; details: Mus musculus, B16-F10, 48 h
U-937 [21] = assay: Induction of apoptosis in U937 cells by DNA fragmentation assay; assay type: functional, cell-based; details: Homo sapiens
HT-1080 [22] = assay: Cytotoxicity against HT1080 cells at 10 uM after 48 hrs; assay type: functional; details: Homo sapiens, HT-1080, 48 h
HT-1080 [23] = assay: Cytotoxicity against HT1080 cells at 1.0 uM after 24 hrs; assay type: functional; details: Homo sapiens, HT-1080, 24 h
B16-F10 [24] = assay: Cytotoxicity against B16F10 cells at 1.0 uM after 24 hrs; assay type: functional; details: Mus musculus, B16-F10, 24 h

Compound | inhibition at 10 µM (U-937 [1]) [%] | inhibition at 1 µM (U-937 [2]) [%] | inhibition at 1 µM (HT-1080 [3]) [%] | inhibition at 10 µM (HT-1080 [4]) [%] | inhibition at 10 µM (B16-F10 [5]) [%] | inhibition at 0.1 µM (B16-F10 [6]) [%] | inhibition at 1 µM (B16-F10 [7]) [%] | inhibition at 0.1 µM (HT-1080 [8]) [%] | inhibition at 1 µM (B16-F10 [9]) [%] | inhibition at 1 µM (U-937 [10]) [%] | inhibition at 10 µM (HT-1080 [11]) [%] | inhibition at 10 µM (U-937 [12]) [%] | inhibition at 1 µM (HT-1080 [13]) [%] | inhibition at 0.1 µM (HT-1080 [14]) [%] | inhibition at 0.1 µM (B16-F10 [15]) [%] | inhibition at 10 µM (U-937 [17]) [%] | inhibition at 10 µM (B16-F10 [18]) [%] | inhibition at 1 µM (U-937 [19]) [%] | inhibition at 10 µM (B16-F10 [20]) [%] | inhibition at 10 µM (HT-1080 [22]) [%] | further results
C[C@@H]1CC[C@@H](c2ccoc2)N2C[C@@]3(CC[C@@H]12)C[S+]([O-])[C@]1(CC[C@H]2[C@H](C)CC[C@@H](c4ccoc4)N2C1)C3 (some centres not stated) | 6.3 | 4.7 | -8.1 | -4.4 | 10.8 | 10.4 | 3.2 | -6.1 |  |  |  |  |  |  |  |  |  |  |  |  | 
C[C@@H]1CC[C@@H](c2ccoc2)N2C[C@@]3(CC[C@@H]12)CS[C@@]1(CC[C@H]2[C@H](C)CC[C@@H](c4ccoc4)N2[C@@H]1O)C3 | 94.3 | -1 | 15.7 | 99.2 | 98.7 | 11.1 | 20.8 | 5.4 | 27.3 | 1.3 | 96.1 | 83.2 | 8.3 | 1.6 | 10.3 | 92.5 | 88.6 | 3.6 | 97.3 | 97.5 | inhibition at 0.1 µM (HT-1080 [16]): 1.8%; Activity (U-937 [21]): Active; inhibition at 1 µM (HT-1080 [23]): 14%
C[C@@H]1CC[C@@H](c2ccoc2)N2[C@H]1CC[C@@]1(CS[C@@]3(CC[C@H]4[C@H](C)CC[C@@H](c5ccoc5)N4[C@@H]3O)C1)[C@H]2O | 81.6 | 1.3 | -0.9 | 75.3 | 54.8 | -3.5 | -6 | 0.1 | -15 | 2.3 | 19.3 | 54.7 | 0.5 | 9 | -8 | 80 | 16.6 | 5.3 | 51.8 | 75 | 
C[C@@H]1CC[C@@H](c2ccoc2)N2C[C@]3(CC[C@@H]12)C[S+]([O-])[C@]1(CC[C@H]2[C@H](C)CC[C@@H](c4ccoc4)N2C1)C3 (some centres not stated) | 10 | 5.8 | -1.8 | 6.8 | 9.1 | -3.7 | 7.7 | -0.4 |  |  |  |  |  |  |  |  |  |  |  |  | 
C[C@@H]1CC[C@@H](c2ccoc2)N2C[C@@]3(CC[C@@H]12)C[C@]1(CC[C@H]2[C@H](C)CC[C@@H](c4ccoc4)N2[C@@H]1O)CS3 [6'-HYDROXYTHIONUPHLUTINE B] | 0.5 | 0.1 | -7.3 | -9.1 | -4.8 | 1.7 | -1.6 | -9.8 |  |  |  |  |  |  |  |  |  |  |  |  | 
C[C@@H]1CC[C@@H](c2ccoc2)N2C[C@@]3(CC[C@@H]12)CS[C@]1(CC[C@H]2[C@H](C)CC[C@@H](c4ccoc4)N2[C@@H]1O)C3 [6-HYDROXYTHIONUPHLUTINE B] | 94.1 | 85.3 | 63.5 | 98.7 | 99.1 | 0.9 | 69.3 | 1 | 65 | 89 | 95.9 | 80 | 53.3 | 8.6 | 0.3 | 91.3 | 91.5 | 74.6 | 98.2 | 98 | inhibition at 1 µM (B16-F10 [24]): -22.9%; inhibition at 0.1 µM (HT-1080 [16]): 6.3%; inhibition at 1 µM (HT-1080 [23]): 42%
C[C@@H]1CC[C@H]2[C@H](C)CC[C@@H](c3ccoc3)N2C1 [(-)-7-EPI-DEOXYNUPHARIDINE] | 8 | 6.4 | -6.6 | -10.1 | -7.9 | -1.5 | -9.8 |  |  |  |  |  |  |  |  |  |  |  |  |  | 
